Data taken from US20120010177A1, “MicroRNA Modulators and Method for Identifying And Using The Same” (The Wistar Institute / North Carolina State University, priority 2008, published 2012).
Where two headings read alike, the source gives them in different places.

Test system: miR-21
Experiment: High throughput primary miR-21 FLuc reporter assay (concentration-response)
Format: cell-based, human
Settings: for Curve Class: four parameter logistic fit
Procedure: Primary miR-21 Assay. The primary miR-21 FLuc reporter assay is carried out with HeLa cells expressing the Luc-miR-21 reporter using a 48-hour incubation time. Active compounds that increase the luciferase response are identified based upon inhibition of miR-21.
SAR. The concentration-response data for the entire high throughput screen is plotted and modeled by a four parameter logistic fit and SAR analysis is performed according to conventional approaches (Iglese, et al. (2006) Proc. Natl. Acad. Sci. USA […]:11473-8). In brief, Class 1.1 and 1.2 are full curves containing upper and lower asymptotes with efficacy ≧80% and <80%, respectively. Class 2.1 and 2.2 are incomplete curves having only one asymptote with efficacy ≧80% and <80%, respectively. Class 3 curves show activity at only the highest concentration or are poorly fit. […] For SAR analysis, compounds associated with Class 1 and 2.1 curves are clustered using LEADSCOPE® fingerprints. […] Compounds sharing a common scaffold form a series. Candidate series and singletons are chosen for follow up studies. For each lead or series, an appropriate library design method (e.g., point substitution library or matrix library) is selected. Typically, precursors are synthesized and a library of 15-25 compounds is produced for analysis in the above-described assays.

[1] = Homo sapiens, HeLa, 48 h, HeLa Luc-miR-21 reporter, 48-hour incubation, read-out: AC50
[2] = HeLa Luc-miR-21 reporter, 48-hour incubation
[3] = HeLa Luc-miR-21 reporter, 48-hour incubation, read-out: AC50
[4] = Homo sapiens, Table 12 singletons, read-out: AC50

Structure (SMILES)	AC50 [1] [µM]	also measured
NC(=O)COC(=O)c1ccc2noc(-c3ccccc3)c2c1 [Compound 182]	6.56	–
COc1ccc2cc(OCC(=O)NNC(=O)Nc3ccc(C(C)=O)cc3)ccc2c1 [Compound 183, COC1═C/C═C2/C═C(OCC(═O)NNC(═O)NC3═C/C═C(\C═C\3)C(C)═O)\C═C/C\2═C\1]	–	Efficacy [2]: −65.21; Curve Class [2]: −2.2; AC50 [3]: 16.5 µM
COc1ccc(OCC(=O)Nc2cc(-c3nc4ccccc4s3)ccc2C)cc1 [Compound 184]	4.65	–
C/C(=N\NC(=O)c1ccncc1)c1ccc(NC(=O)c2ccc(Cl)cc2)cc1 [Compound 185]	1.47	–
O=C(NN=C1CCCC1)c1cccs1 [Compound 186]	1.65	–
COc1ccc(NC(=O)C/C(C)=N/NC(=O)c2ccccn2)c(OC)c1 [Compound 187]	1.85	–
COc1ccccc1NC(=O)C/C(C)=N/NC(=O)c1ccccn1 [Compound 188]	1.85	–
CC(=O)Nc1ccccc1NC(=O)C/C(C)=N/NC(=O)c1ccccn1 [Compound 189]	1.85	–
COc1ccc(NC(=O)C/C(C)=N/NC(=O)c2cccs2)c([N+](=O)[O-])c1 [Compound 190]	1.85	–
C/C(=N\N1C(=O)c2ccccc2NC1c1ccccc1)c1ccccc1O (stereo not drawn) [Compound 192]	2.61	–
O=C(Cc1cccs1)N/N=C/C(Cl)=C/c1ccccc1 [Compound 193]	2.93	–
COc1cc(NC(=O)C/C(C)=N/NC(=O)c2ccccn2)c(OC)cc1Cl [Compound 194]	3.69	–
C/C(CC(=O)Nc1cc(C)cc(C)c1)=N\NC(=O)c1ccccn1 [Compound 195]	4.65	–
C/C(=N\NC(=O)c1ccco1)c1ccc(C(=O)O)s1 [Compound 196]	4.65	–
C/C(=N\NC(=O)c1ccccc1)c1ccc(NC(=O)C(F)(F)F)cc1 [Compound 197]	4.65	–
Nc1ccccc1C(=O)N/N=C1\CCC\C1=C(\O)C(F)(F)F [Compound 198]	5.21	–
O=C(N/N=C1\CC2C=CCC12)c1ccco1 (stereo not drawn) [Compound 199]	5.21	–
C/C(CC(=O)NC(C)(C)C)=N\NC(=O)c1ccccc1N [Compound 200]	5.21	–
CC1C2CC(C/C2=N\NC(=O)c2cccs2)C1(C)C (stereo not drawn) [Compound 201]	5.21	–
Cc1ccc(N/C(S)=N/NC(=O)c2nn(C)c(C)c2Cl)cc1 [Compound 203]	5.85	–
O=C(Cc1cccs1)N/N=C/C=C/c1ccccc1[N+](=O)[O-] [Compound 204]	6.56	–

Structure (SMILES)	AC50 [1] [µM]	also measured
C/C(CC(=O)NC(C)(C)C)=N\NC(=O)c1ccco1 [Compound 205]	6.56	–
CC(C)N1CCC(=NNC(=O)c2cccs2)CC1 [Compound 206]	6.56	–
Cc1ccc(C)c(N/C(S)=N/NC(=O)c2csc(C)c2C)c1 [Compound 207]	6.56	–
COc1ccc(N/C(S)=N/NC(=O)c2cccs2)cc1 [Compound 208]	7.36	–
CC(=NNC(=O)c1ccoc1C)c1cccc2ccccc12 [Compound 209, CC(═NNC(═O)C1═C(C)/O/C═C\1)C2═C/C═C\C3═C\C═C/C═C\2\3]	–	Efficacy [2]: −65.67; Curve Class [2]: −2.2; AC50 [3]: 7.36 µM
Cc1occc1C(=O)N/N=C(\S)Nc1ccccc1C(F)(F)F [Compound 211]	8.26	–
COc1ccc(C2=NN(C(C)=O)C(c3cccs3)C2)cc1OC (stereo not drawn) [Compound 212]	8.26	–
C/C(CC(=O)NCc1ccccc1Cl)=N\NC(=O)c1ccccn1 [Compound 213]	8.26	–
CCCCC12CN3CCN(CC(C3)/C1=N/NC(=O)c1ccccc1N)C2 [Compound 214]	9.27	–
C/C(=N\NC(=O)c1ccc(Br)o1)c1ccc(C)o1 [Compound 216]	10.4	–
CC1=NN(C(=O)c2ccoc2C)C(O)(C(F)(F)F)C1 (stereo not drawn) [Compound 217]	10.4	–
C/C(=N\NC(=O)c1ccoc1C)c1ccc(Br)s1 [Compound 219]	11.7	–
O=C(N/N=C/c1cccc([N+](=O)[O-])c1)c1nc(O)c2ccccc2n1 [Compound 220]	11.7	–
O=C(N/N=C1\CC2C=CCC12)c1cccs1 (stereo not drawn) [Compound 221]	11.7	–
C/C(CCc1ccccc1)=N\NC(=O)c1ccccc1 [Compound 222]	13.1	–
Cc1ccsc1/C=N/NC(=O)c1ccc(-n2cccc2)cc1 [Compound 223]	13.1	–
O=C(N/N=C/c1ccc2cccnc2c1)c1nc(O)c2ccccc2n1 [Compound 224]	13.1	–
C/C(CCc1ccc2c(c1)OCO2)=N\NC(=O)c1ccccc1 [Compound 225]	13.1	–
O=C(O)c1ccccc1C(=O)N1N=C(c2ccccc2)CC1c1ccccc1O (stereo not drawn) [Compound 226]	14.7	–
CC(=O)N1N=C(c2ccc(C)cc2)OC1c1cccnc1 (stereo not drawn) [Compound 228]	16.5	–
C/C(=N\NC(=O)c1ccco1)c1ccc(NC(=O)C(F)(F)F)cc1 [Compound 229]	16.5	–

Structure (SMILES)	AC50 [1] [µM]	also measured
CCCCCCC1/C(=N\NC(=O)c2ccccc2)CCC1C(=O)OC (stereo not drawn) [Compound 230]	16.5	–
CC1=NN(C(=O)c2ccc(C)o2)C(O)(c2ccccc2)C1 (stereo not drawn) [Compound 231]	16.5	–
C/C(=N\NC(=O)c1nn(C)cc1Br)c1ccc(NC(=O)c2ccncc2)cc1 [Compound 234]	18.5	–
O=C(N/N=C/c1ccc(OC(=O)c2cccs2)cc1)c1cccc(F)c1 [Compound 235]	18.5	–
C/C(Cn1cnc([N+](=O)[O-])n1)=N\NC(=O)c1ccccc1 [Compound 236]	20.8	–
COc1ccc(NC(=O)C/C(C)=N/NC(=O)c2ccco2)c([N+](=O)[O-])c1 [Compound 237]	20.8	–
Cc1oc(/C=N/NS(=O)(=O)c2ccccc2)cc1Br [Compound 238]	13.1	–
Cc1ccccc1OCCn1cnc2c(N)ncnc21 [Compound 239]	9.27	–
Cc1ccc(OCCn2cnc3c(N)ncnc32)cc1 [Compound 240]	16.5	–
COc1cc(-c2nc3cnccn3c2Nc2ccc(C(C)C)cc2)ccc1O [Compound 241]	3.29	–
Cc1ccc(-c2nc3ncccn3c2Nc2ccc3c(c2)OCCO3)o1 [Compound 242]	16.5	–
Cc1ccc(-c2nc3cnccn3c2Nc2ccccc2)o1 [Compound 243]	16.5	–
Cc1ccc(Nc2c(-c3ccc(C)o3)nc3cnccn23)cc1 [Compound 244]	16.5	–
Clc1ccc(-n2ncc3c(NCc4ccccn4)ncnc32)cc1 [Compound 245]	5.85	–
CCCNc1ncnc2c1cnn2-c1ccc(OC)cc1 [Compound 246]	0.29	–
COc1ccc(-n2ncc3c(NCCCn4ccnc4)ncnc32)cc1 [Compound 247]	10.4	–
CCCNc1nc(C)nc2c1cnn2CCc1ccccc1 [Compound 248]	14.7	–
O=C(CCS(=O)(=O)c1ccccc1)Nc1ccc(-c2nc3ccccc3s2)cc1 [Compound 249]	–	AC50 [4]: 0.26 µM
Cc1c(-c2nc(-c3ccc(C(F)(F)F)cc3)no2)n(C)oc1=O [Compound 250]	–	AC50 [4]: 0.29 µM
CCC(C)NC(=O)CCCn1c(=O)c2cccn2c2ccccc21 (stereo not drawn) [Compound 251]	–	AC50 [4]: 0.93 µM
Cn1c(=O)[nH]c2cc(-c3noc(-c4ccc(F)cc4)n3)ccc21 [Compound 252]	–	AC50 [4]: 1.31 µM

Structure (SMILES)	AC50 [1] [µM]	also measured
CC(C)(C)NS(=O)(=O)c1cccc(S(=O)(=O)c2cccc(S(=O)(=O)NC(C)(C)C)c2)c1 [Compound 253]	–	AC50 [4]: 1.65 µM
CC(=O)N1CCN(c2nc3c(F)cc(F)cc3s2)CC1 [Compound 254]	–	AC50 [4]: 1.85 µM
COc1ccc(NCc2cccn2-c2nnc(N3CCC(C)CC3)s2)c(OC)c1 [Compound 255]	–	AC50 [4]: 1.85 µM
COc1ccc(-c2nc3c(Br)c(N)c(Br)cc3o2)cc1 [Compound 256]	–	AC50 [4]: 2.07 µM
c1ccc(-c2onc3cc4c(cc23)OCCO4)cc1 [Compound 257]	–	AC50 [4]: 2.07 µM
Cc1ccc(-c2nc3ccccc3o2)cc1NC(=S)NC(=O)c1cc2ccccc2o1 [Compound 258]	–	AC50 [4]: 2.93 µM
COc1ccc(-c2csc(NC(=O)COC(=O)c3ccc(Br)o3)n2)cc1 [Compound 259]	–	AC50 [4]: 2.93 µM
O=S(=O)(c1ccc(F)cc1)n1ccc(-c2cnc(-c3ccccc3)s2)n1 [Compound 260]	–	AC50 [4]: 2.93 µM
CC(=O)COc1ccc2c3c(c(=O)oc2c1C)CCCCC3 [Compound 261]	–	AC50 (Homo sapiens): 3.29 µM
Nc1c(-c2ccccc2)n[nH]c1-c1ccccc1 [Compound 262]	–	AC50 [4]: 3.29 µM
COc1ccc(-c2c/c(=N\CC(=O)O)c3ccccc3o2)cc1.[O-][Cl+3]([O-])([O-])O [Compound 263]	–	AC50 (Homo sapiens): 3.69 µM
Cc1ccc2[nH]c3c(S)ncnc3c2c1 [Compound 264]	–	AC50 [4]: 3.69 µM
c1ccc(C2=Nn3c(nnc3-c3cc(-c4ccccc4)[nH]n3)SC2)cc1 [Compound 265]	–	AC50 [4]: 3.69 µM
Nc1c(Cl)cc2c(c1Oc1ccccc1)C(=O)c1ccccc1C2=O [Compound 266]	–	AC50 [4]: 4.14 µM
O=C1C(Nc2ccccc2)=C2CCCC=C2N1c1ccccc1 [Compound 267]	–	AC50 [4]: 4.14 µM
Fc1cccc(/C=N/N=C(\S)Nc2ccccc2Cl)c1 [Compound 268]	–	AC50 [4]: 4.65 µM
O=S(=O)(c1cccc2nsnc12)N1CCc2ccccc21 [Compound 269]	–	AC50 [4]: 4.65 µM
COCCC/N=C(\S)N/N=C/c1ccc(N(C)C)cc1Cl [Compound 270]	–	AC50 [4]: 5.85 µM
O=C(Nc1ccccc1)c1cc2n(n1)C(C(F)(F)F)CC(C1CC1)N2 (stereo not drawn) [Compound 272]	–	AC50 [4]: 6.56 µM
COC(=O)c1ccc(Cn2nnc3sc4c(c3c2=O)CCCC4)cc1 [Compound 273]	–	AC50 [4]: 6.56 µM
